6 compounds from PMC7238052, “Novel and Modified Neutrophil Elastase Inhibitor Loaded in Topical Formulations for Psoriasis Management” (Pharmaceutics, 2020) can be followed below.

Read-outs that look alike come from different tables or passages of the source. A value given as a limit tells only on which side of the number the result lay.

Experiment [1] concerns the target T1, Human neutrophil elastase (HNE) (Homo sapiens, UniProt P08246).
T1 construct: gene ELANE; isolated enzyme, single polypeptide chain
T1 sequence (P08246 30-247): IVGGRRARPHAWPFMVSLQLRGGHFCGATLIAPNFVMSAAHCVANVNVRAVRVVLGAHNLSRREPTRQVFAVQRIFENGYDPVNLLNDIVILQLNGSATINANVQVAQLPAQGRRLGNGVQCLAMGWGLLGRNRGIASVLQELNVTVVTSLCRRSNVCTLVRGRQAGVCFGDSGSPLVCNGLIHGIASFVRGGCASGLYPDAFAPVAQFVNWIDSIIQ
As to the kind of experiment: fluorometric protease assay, MeO-Suc-Ala-Ala-Pro-Val-AMC. The format is biochemical. The source says:
fluorometric protease assay, MeO-Suc-Ala-Ala-Pro-Val-AMC on Human neutrophil elastase (HNE)

In the next experiment the test system is T2, chymotrypsin.
T2 construct: gene CTRB1; enzyme from human pancreas
The experiment in a line: fluorometric protease assay, Suc-Ala-Ala-Pro-Phe-AMC. The format is biochemical, Homo sapiens. Particulars: […] Tris-HCl, […] NaCl pH […] °C; read-out: IC50 ± SD (μM) / Chymotrypsin. The source says:
fluorometric protease assay, Suc-Ala-Ala-Pro-Phe-AMC on chymotrypsin

A further experiment deals with T3, trypsin.
T3 construct: gene PRSS1; enzyme from human pancreas
The experiment in a line: fluorometric protease assay, Z-Gly-Gly-Arg-AMC. The format is biochemical, Homo sapiens. To be noted: […] Tris-HCl, […] NaCl pH […] °C; read-out: IC50 ± SD (μM) / Trypsin. The source says: fluorometric protease assay, Z-Gly-Gly-Arg-AMC on trypsin

The target of the next experiment is T4, urokinase (Homo sapiens, UniProt P00749).
T4 construct: gene PLAU; isolated enzyme; source not clearly stated
As to the kind of experiment: fluorometric protease assay, Z-Gly-Gly-Arg-AMC. The format is biochemical. To be noted: read-out: IC50 ± SD (μM) / Urokinase. The source says: fluorometric protease assay, Z-Gly-Gly-Arg-AMC on urokinase

A further experiment deals with T5, kallikrein.
T5 construct: gene KLKB1
The experiment in a line: fluorometric protease assay, H-Pro-Phe-Arg-AMC. To be noted: […] Tris-HCl, […] NaCl pH […] °C; read-out: IC50 ± SD (μM) / Kallikrein. The format is biochemical, Homo sapiens. The source says: fluorometric protease assay, H-Pro-Phe-Arg-AMC on kallikrein

Take `CCC1(CC)C(=O)N(c2ccc(COc3ccc4ccc(=O)oc4c3)cc2)C1=O` [compound 1, 3,3-diethyl-1-(4-(((2-oxo-2H-chromen-7-yl)oxy)methyl)phenyl)-azetidine-2,4-dione]: the IC50 was 0.42 ± 0.09 nM in experiment [1] (read-out: IC50 ± SD), more than 8 µM in the experiment with chymotrypsin, more than 1 µM with trypsin and more than 50 µM at urokinase.

On to `CCC1(CC)C(=O)N(c2ccc(CBr)cc2)C1=O` [compound 6], for which, in experiment [1] (read-out: IC50 ± SD), the IC50 was 0.64 ± 0.03 nM.

For `CCC1(CC)C(=O)N(c2ccc(C(=O)OCc3ccccc3)cc2)C1=O` [compound 8], the IC50 in experiment [1] (read-out: IC50 ± SD) stood at 0.96 ± 0.13 nM.

Turning to `CCC1(CC)C(=O)N(c2ccc(C(=O)O)cc2)C1=O` [compound 9], the IC50 in experiment [1] (read-out: IC50 ± SD) turned out to be 14.7 ± 5.55 nM.

Regarding `CCC1(CC)C(=O)N(c2ccc(CSc3nc4cc(C(=O)NCCCNc5ccc([N+](=O)[O-])c6nonc56)ccc4o3)cc2)C1=O` [compound 16, 2-((4-(3,3-diethyl-2,4-dioxoazetidin-1-yl)benzyl)thio)-N-(3-((7nitrobenzo[c][1,2,5]oxadiazol-4-yl)amino)propyl)benzo[d]oxazole-5-carboxamide], the IC50 is more than 5 µM in the experiment on kallikrein, 0.85 ± 0.1 nM in experiment [1] (read-out: IC50 ± SD (nM) / HNE), more than 1 µM in the experiment on trypsin and more than 2 µM at urokinase.

For `CCC1(CC)C(=O)N(c2ccc(C(=O)NCCCNc3ccc([N+](=O)[O-])c4nonc34)cc2)C1=O` [compound 17], the IC50 with kallikrein is more than 3 µM; in experiment [1] (read-out: IC50 ± SD (nM) / HNE), 0.64 ± 0.03 nM; with chymotrypsin, more than 0.5 µM; in the experiment on trypsin, more than 1 µM; on urokinase it was more than 2 µM.
